Data taken from patent US20250154193A1, “STEROID COMPOUND, AND PREPARATION METHOD THEREFOR AND APPLICATION THEREOF” (CHOLESGEN (SHANGHAI) CO., LTD., priority 2022, published 2025).

System: SREBP pathway
Assay: SREBP luciferase reporter gene system (SRE-luciferase assay) in Huh-7/SRE-Luc cells
Type: cell-based
Settings: Homo sapiens, sterol-deficient medium, compound treatment 16 hours, luciferase/GFP ratio
Experimental: Huh-7/SRE-Luc, a human hepatocellular carcinoma cell line, was grown in a culture medium containing DMEM, 10% fetal bovine serum, 100 units/mL penicillin, 100 µg/mL streptomycin, and 200 μg/mL G418.
The Huh-7/SRE-Luc cell line is a human hepatocellular carcinoma cell line Huh-7 stably expressing LDLR promoter-luciferase and green fluorescent protein (GFP). The LDLR promoter region contains a sterol regulatory element (SRE) that can effectively and sensitively respond to the regulation of the transcription factor SREBP. The GFP signal serves as an internal reference to indicate changes in cell number. Therefore, this cell line can be used to screen for active small molecules that regulate the SREBP signaling pathway. […] Cells were incubated in a sterol-deficient medium (5% lipoprotein-deficient serum, 2 μM Lovastatin, 10 μM mevalonate) and treated with corresponding concentrations of compounds for 16 hours. After compound treatment, the cells were lysed with lysis buffer (E397A, Promega), followed by the addition of luciferase substrate (E1500, Promega). The SRE-driven luciferase activity was measured using a BioTek Synergy HTX microplate reader (including but not limited to this type of instrument). The fluorescence intensity of enhanced green fluorescent protein (EGFP) was also measured using the BioTek microplate reader (including but not limited to this type of instrument) and used as an internal reference. The ratio of SRE-driven luciferase activity to GFP fluorescence intensity was used as an indicator of SREBP pathway activity. The test data of each test compound was analyzed using Prism software to obtain the IC50 parameter of the compound.
The inhibitory effect of the compounds of the present disclosure on the SREBP pathway was tested by the method of bioassay example 2. The concentration gradient of each compound was designed as 0.01, 0.03, 0.1, 0.3, 1.0, 3.0, and […], with DMSO as a vehicle control.

| Compound | IC50 [µM] |
| --- | --- |
| C[C@H](CCCC(C)(C)O)[C@H]1CC[C@H]2[C@@H]3CC[C@]4(O)[C@@H](O)[C@@H](O)CC[C@]4(C)[C@H]3CC[C@]12C (single isomer, unassigned) [compound 248, cholest-3β,4,5,25-tetraol] | 0.766 |
| C[C@H](CCC[C@H](O)c1ccccc1F)[C@H]1CC[C@H]2[C@@H]3CC[C@H]4[C@@H](O)[C@@H](O)CC[C@]4(C)[C@H]3CC[C@]12C (single isomer, unassigned) [compound 280, 24-[R-(2-fluorophenyl)(hydroxy)methyl]-5α-cholan-30,40-diol or 24-[S-(2-fluorophenyl)(hydroxy)methyl]-5α-cholan-30,40-diol] | 0.118 |
| COc1ccccc1[C@H](O)CCC[C@@H](C)[C@H]1CC[C@H]2[C@@H]3CC[C@H]4[C@@H](O)[C@@H](O)CC[C@]4(C)[C@H]3CC[C@]12C (single isomer, unassigned) [compound 325, 24-[S-hydroxy(2-methoxyphenyl)methyl]-5α-cholan-3β,4β-diol or 24-[R-hydroxy(2-methoxyphenyl)methyl]-5α-cholan-3β,4β-diol] | 0.09 |
| C[C@H](CCCC(C)(C)O)[C@H]1CC[C@H]2[C@@H]3CC[C@H]4C(=NO)[C@@H](O)CC[C@]4(C)[C@H]3CC[C@]12C (stereo in doubt) [compound 273, [(1R,3aS,3bS,5aR,6E,7S,9aR,9bS,11aR)-7-hydroxy-1-[(2R)-6-hydroxy-6-methylheptan-2-yl]-9a,11a-dimethylhexadecahydro-1H-cyclopenta[1,2-a]phenanthren-6-ylidene]hydroxylamine] | 0.279 |
| C[C@H](CCCC(C)(C)O)[C@H]1CC[C@H]2[C@@H]3CCC4(O)C[C@@H](O)CC[C@]4(C)[C@H]3CC[C@]12C (stereo partly shown) [compound 205, cholest-30,5,25-triol] | 0.817 |
| C[C@H](CCCC(C)(C)O)[C@H]1CC[C@H]2[C@@H]3C[C@@H](O)[C@H]4C[C@@H](O)CC[C@]4(C)[C@H]3CC[C@]12C [compound 206, cholest-3β,6,25-triol] | 0.464 |
| C[C@H](CCCC(C)(C)O)[C@H]1CC[C@H]2[C@@H]3CC(O)C4(O)C[C@@H](O)CC[C@]4(C)[C@H]3CC[C@]12C (stereo partly drawn) [compound 207, cholest-3β,5,6,25-tetraol] | 3.09 |
| COC1C[C@H]2[C@@H]3CC[C@H]([C@H](C)CCCC(C)(C)O)[C@@]3(C)CC[C@@H]2[C@@]2(C)CC[C@H](O)CC12O (stereo partly drawn) [compound 208, 6-methoxycholest-3β,5,25-triol] | 1.93 |
| C[C@H](CCCC(C)(C)O)[C@H]1CC[C@H]2[C@@H]3C(O)C[C@H]4C[C@@H](O)CC[C@]4(C)[C@H]3CC[C@]12C (stereo partly drawn) [compound 210, 5α-cholest-3β,7,25-triol] | 0.837 |
| CCC(O)CCC[C@@H](C)[C@H]1CC[C@H]2C3CC[C@H]4C[C@@H](O)CC[C@]4(C)C3CC[C@]12C (stereo partly drawn) [compound 211, (1R,3aS,5aS,7S,9aS,11aR)-1-[(2R)-6-hydroxyoctan-2-yl]-3a,9a,11a-trimethylhexadecahydro-1H-cyclopenta[1,2-α]phenanthren-7-ol] | 0.395 |
| C[C@H](CCCC(O)C1CC1)[C@H]1CC[C@H]2[C@@H]3CC[C@H]4C[C@@H](O)CC[C@]4(C)[C@H]3CC[C@]12C (stereo partly drawn) [compound 217, 24-[cyclopropyl(hydroxy)methyl]-5α-cholan-3β-ol] | 0.329 |
| C[C@H](CCCC(O)C(F)(F)F)[C@H]1CC[C@H]2[C@@H]3CC[C@H]4C[C@@H](O)CC[C@]4(C)[C@H]3CC[C@]12C (stereo partly drawn) [compound 218, 24-(2,2,2-trifluoro-1-hydroxyethyl)-5α-cholan-3β-ol] | 0.296 |
| C[C@H](CCN1CCc2ccccc2C1=O)[C@H]1CC[C@H]2[C@@H]3CC[C@H]4C[C@@H](O)CC[C@]4(C)[C@H]3CC[C@]12C [compound 224] | > 10 |
| C[C@H](CCCC(C)(C)O)[C@H]1CC[C@H]2[C@@H]3CC(=O)C4(O)C[C@@H](O)CC[C@]4(C)[C@H]3CC[C@]12C (stereo partly shown) [compound 225, 3P,5,25-trihydroxycholest-6-one] | 0.667 |
| C[C@H](CCCC(C)(C)O)[C@H]1CC[C@H]2[C@@H]3CC(O)C4(F)C[C@@H](O)CC[C@]4(C)[C@H]3CC[C@]12C (stereo partly shown) [compound 226] | 46.6 |
| C[C@H](CCCC(C)(C)O)[C@H]1CC[C@H]2[C@@H]3CC(C#N)C4(O)C[C@@H](O)CC[C@]4(C)[C@H]3CC[C@]12C (stereo partly shown) [compound 227] | 1.33 |

| Compound | IC50 [µM] |
| --- | --- |
| C[C@H](CCCC(C)(C)O)[C@H]1CC[C@H]2[C@@H]3C(O)C[C@H]4[C@@H](O)[C@@H](O)CC[C@]4(C)[C@H]3CC[C@]12C (stereo partly drawn) [compound 231, cholest-3β,4p,7,25-tetraol] | 1.03 |
| C[C@H](CCCC(O)C(F)(F)F)[C@H]1CC[C@H]2[C@@H]3CC[C@H]4[C@@H](O)[C@@H](O)CC[C@]4(C)[C@H]3CC[C@]12C (stereo partly drawn) [compound 232, 24-(2,2,2-trifluoro-1-hydroxyethyl)-5α-cholan-3β,4β-diol] | 0.084 |
| C[C@H](CCCC(O)C1CC1)[C@H]1CC[C@H]2[C@@H]3CC[C@H]4[C@@H](O)[C@@H](O)CC[C@]4(C)[C@H]3CC[C@]12C (stereo partly drawn) [compound 233, 24-[cyclopropyl(hydroxy)methyl]-5α-cholan-3β,4β-diol] | 0.232 |
| C[C@H](CCCC(O)c1ccccc1F)[C@H]1CC[C@H]2[C@@H]3CC[C@H]4[C@@H](O)[C@@H](O)CC[C@]4(C)[C@H]3CC[C@]12C (stereo partly shown) [compound 234] | 0.36 |
| C[C@H](CCCC(C)(C)O)[C@H]1CC[C@H]2[C@@H]3CC(=O)[C@H]4[C@@H](O)[C@@H](O)CC[C@]4(C)[C@H]3CC[C@]12C [compound 235, 25-hydroxy-4β-hydroxy-3β-hydroxy-5α-cholest-6-one] | 10.8 |
| C[C@H](CCCC(C)(C)O)[C@H]1CC[C@@]2(C)[C@@H]3C(O)C[C@H]4C(C)(C)[C@@H](O)CC[C@]4(C)[C@H]3CC[C@]12C (stereo partly drawn) [compound 237, (1R,3aS,5aR,7S,9aR,11aR)-1-[(2R)-6-hydroxy-6-methylheptan-2-yl]-3a,6,6,9a,11a-pentamethylhexadecahydro-1H-cyclopenta[1,2-α]phenanthrene-4,7-diol] | 7.04 |
| C[C@H](CCCC(C)(C)O)[C@H]1CC[C@H]2[C@@H]3C[C@H](O)[C@H]4C[C@@H](O)CC[C@]4(C)[C@H]3CC[C@]12C [compound 240, cholest-30,6a,25-triol] | 0.67 |
| CCC(O)CCC[C@@H](C)[C@H]1CC[C@H]2[C@@H]3CC[C@H]4[C@@H](O)[C@@H](O)CC[C@]4(C)[C@H]3CC[C@]12C (stereo partly drawn) [compound 241, 24-(1-hydroxypropyl)-5α-cholan-3β,4β-diol] | 0.328 |
| C[C@H](CCCC(C)(C)O)[C@H]1CC[C@H]2[C@@H]3C(=O)C[C@H]4[C@@H](O)[C@@H](O)CC[C@]4(C)[C@H]3CC[C@]12C [compound 242, 25-hydroxy-4β-hydroxy-3β-hydroxy-5α-cholest-7-one] | 0.556 |
| C[C@H](CCCC(C)(C)O)[C@H]1CC[C@H]2[C@@H]3CC(O)[C@H]4[C@@H](O)[C@@H](O)CC[C@]4(C)[C@H]3CC[C@]12C (stereo partly drawn) [compound 244, cholest-3β,4p,6,25-tetraol] | 3.76 |
| C[C@H](CCCC1(O)CC1)[C@H]1CC[C@H]2[C@@H]3CC[C@H]4[C@@H](O)[C@@H](O)CC[C@]4(C)[C@H]3CC[C@]12C [compound 245, (1R,3aS,5aR,6R,7S,9aR,11aR)-1-[(2R)-5-(hydroxycyclopropyl)pentan-2-yl]-9a,11a-dimethylhexadecahydro-1H-cyclopenta[1,2-a]phenanthrene-6,7-diol] | 0.192 |
| C[C@H](CCCC(C)(C)O)[C@H]1CC[C@H]2[C@@H]3CC[C@H]4C(O)(C(F)(F)F)[C@@H](O)CC[C@]4(C)[C@H]3CC[C@]12C (stereo partly drawn) [compound 246, 4-(trifluoromethyl)-5α-cholest-3β,4,25-triol] | 0.988 |
| C[C@H](CCCC(O)c1ccccc1F)[C@H]1CC[C@H]2[C@@H]3CC[C@H]4C[C@@H](O)CC[C@]4(C)[C@H]3CC[C@]12C (stereo partly drawn) [compound 251, 24-[(2-fluorophenyl)(hydroxy)methyl]-5α-cholan-3β-ol] | 0.321 |
| C[C@H](CCCC1(O)CC1)[C@H]1CC[C@H]2[C@@H]3CC[C@H]4C[C@@H](O)CC[C@]4(C)[C@H]3CC[C@]12C [compound 253, 24-(hydroxycyclopropyl)-5α-cholan-3β-ol] | 0.187 |
| C[C@H](CCCC(C)(C)O)[C@H]1CC[C@H]2[C@@H]3CC[C@H]4C(C)(O)[C@@H](O)CC[C@]4(C)[C@@]3(C)CC[C@]12C (stereo partly drawn) [compound 254, 4-methyl-5α-cholest-3β,4,25-triol] | 6.19 |
